Laboratory results reported in patent publication US9695155B2, “Herbicidal substituted pyrimidinyloxy benzene compounds” (E. I. DU PONT DE NEMOURS AND COMPANY, priority 2013, dated 2017).

Key:
barnyardgrass [1] = assay: Test A preemergence; type: in vivo, Echinochloa crus-galli; settings: 0 to 100 scale, 0 no effect, 100 complete control, approx. 10 days
Method in brief: (§1)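 Visual injury scored 0–100 (100 = complete control) against untreated controls about 10 days after treatment in a greenhouse. Test chemicals, formulated with surfactant in non-phytotoxic solvent, were sprayed on soil preemergence or on 2-10 cm, one- to two-leaf plants postemergence.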

kochia [2] = assay: Test A preemergence; type: in vivo, Kochia scoparia; settings: 0 to 100 scale, 0 no effect, 100 complete control, approx. 10 days
Source text: (§2) Seeds of plant species selected from barnyardgrass (Echinochloa crus-galli), kochia (Kochia scoparia), ragweed (common ragweed, Ambrosia elatior), Italian ryegrass (Lolium multiflorum), large (Lg) crabgrass (Digitaria sanguinalis), giant foxtail (Setaria faberii), morningglory (Ipomoea spp.), pigweed (Amaranthus retroflexus), velvetleaf (Abutilon theophrasti), wheat (Triticum aestivum), and corn (Zea mays) were planted into a blend of loam soil and sand and treated preemergence with a directed soil spray using test chemicals formulated in a non-phytotoxic solvent mixture which included a surfactant.
(§3) At the same time, plants selected from these crop and weed species and also blackgrass (Alopecurus myosuroides), and galium (catchweed bedstraw, Galium aparine) were planted in pots containing the same blend of loam soil and sand and treated with postemergence applications of test chemicals formulated in the same manner. Plants ranged in height from 2 to 10 cm and were in the one- to two-leaf stage for the postemergence treatment. Treated plants and untreated controls were maintained in a greenhouse for approximately 10 days, after which time all treated plants were compared to untreated controls and visually evaluated for injury. Plant response ratings, summarized in Table A, are based on a 0 to 100 scale where 0 is no effect and 100 is complete control. A dash (-) response means no test result.

ragweed [3] = assay: Test A preemergence; type: in vivo, Ambrosia elatior; settings: 0 to 100 scale, 0 no effect, 100 complete control, approx. 10 days
Source text: as §2, §3

Italian ryegrass [4] = assay: Test A preemergence; type: in vivo, Lolium multiflorum; settings: 0 to 100 scale, 0 no effect, 100 complete control, approx. 10 days
Source text: as §2, §3

giant foxtail [5] = assay: Test A preemergence; type: in vivo, Setaria faberii; settings: 0 to 100 scale, 0 no effect, 100 complete control, approx. 10 days
Method in brief: as §1

pigweed [6] = assay: Test A preemergence; type: in vivo, Amaranthus retroflexus; settings: 0 to 100 scale, 0 no effect, 100 complete control, approx. 10 days
Method in brief: as §1

barnyardgrass [7] = assay: Test A postemergence; type: in vivo, Echinochloa crus-galli; settings: 0 to 100 scale, 0 no effect, 100 complete control
Method in brief: as §1

kochia [8] = assay: Test A postemergence; type: in vivo, Kochia scoparia
Source text: as §2, §3

ragweed [9] = assay: Test A postemergence; type: in vivo, Ambrosia elatior
Source text: as §2, §3

Italian ryegrass [10] = assay: Test A postemergence; type: in vivo, Lolium multiflorum
Source text: as §2, §3

giant foxtail [11] = assay: Test A postemergence; type: in vivo, Setaria faberii
Method in brief: as §1

pigweed [12] = assay: Test A postemergence; type: in vivo, Amaranthus retroflexus
Method in brief: as §1

wheat = assay: Test A postemergence; type: in vivo, Triticum aestivum
Method in brief: as §1

corn = assay: Test A postemergence; type: in vivo, Zea mays; settings: 0 to 100 scale, 0 no effect, 100 complete control
Method in brief: as §1

blackgrass = assay: Test A postemergence; type: in vivo, Alopecurus myosuroides; settings: 0 to 100 scale, 0 no effect, 100 complete control
Source text: as §2, §3

galium = assay: Test A postemergence; type: in vivo, Galium aparine
Source text: as §2, §3

[13] = 500 g ai/ha, 0 to 100 scale where 0 is no effect and 100 is complete control
[14] = 1000 g ai/ha, 0 to 100 scale, 0 no effect, 100 complete control

Row | Compound | Barnyardgrass plant response rating (barnyardgrass [1]; 1000 g ai/ha) | Kochia plant response rating (kochia [2]; 1000 g ai/ha) | Ragweed plant response rating (ragweed [3]; 1000 g ai/ha) | Ryegrass, Italian plant response rating (Italian ryegrass [4]; 1000 g ai/ha) | Foxtail, Giant plant response rating (giant foxtail [5]; 1000 g ai/ha) | Pigweed plant response rating (pigweed [6]; 1000 g ai/ha) | Plant response rating, Barnyardgrass (barnyardgrass [7]; 1000 g ai/ha) | Plant response rating, Kochia (kochia [8]; [14]) | Plant response rating, Ragweed (ragweed [9]; [14]) | Plant response rating, Ryegrass, Italian (Italian ryegrass [10]; [14]) | Plant response rating, Foxtail, Giant (giant foxtail [11]; [14]) | Plant response rating, Pigweed (pigweed [12]; [14]) | Plant response rating, Wheat (wheat; [14]) | Plant response rating, Corn (corn; 1000 g ai/ha) | Plant response rating, Blackgrass (blackgrass; 1000 g ai/ha) | Plant response rating, Galium (galium; [14]) | further results
1 | Oc1cccc(Oc2ncc(Cl)cn2)c1-n1cc(Br)cn1 [Compound 68] |  |  |  |  |  |  |  |  |  |  |  |  |  |  |  |  | Barnyardgrass plant response rating (barnyardgrass [1]; 500 g ai/ha): 0; Kochia plant response rating (kochia [2]; 500 g ai/ha): 0; Ragweed plant response rating (ragweed [3]; 500 g ai/ha): 0; Ryegrass, Italian plant response rating (Italian ryegrass [4]; 500 g ai/ha): 0; Foxtail, Giant plant response rating (giant foxtail [5]; 500 g ai/ha): 0; Pigweed plant response rating (pigweed [6]; 500 g ai/ha): 30; Plant response rating, Barnyardgrass (barnyardgrass [7]; 500 g ai/ha): 0; Plant response rating, Kochia (kochia [8]; [13]): 0; Plant response rating, Ragweed (ragweed [9]; [13]): 0; Plant response rating, Ryegrass, Italian (Italian ryegrass [10]; [13]): 0; Plant response rating, Foxtail, Giant (giant foxtail [11]; [13]): 0; Plant response rating, Pigweed (pigweed [12]; [13]): 0; Plant response rating, Wheat (wheat; [13]): 0; Plant response rating, Corn (corn; 500 g ai/ha): 0; Plant response rating, Blackgrass (blackgrass; 500 g ai/ha): 0; Plant response rating, Galium (galium; [13]): 0
2 | C[Si](C)(C)c1cn(-c2c(Br)cccc2Oc2ncc(Cl)cn2)nn1 [Compound 300] | 20 | 60 | 0 | 20 | 80 | 100 | 0 | 20 | 0 | 0 | 30 | 60 | 0 | 10 | 0 | 40 | 
3 | NC(=O)c1cnn(-c2ccccc2Oc2ncc(Cl)cn2)c1 [Compound 281] | 0 | 0 | 30 | 10 | 0 | 60 | 0 | 70 | 70 | 0 | 0 | 70 | 0 | 10 | 0 | 60 | 
4 | CN(C)C(=O)c1cccc(Oc2ncc(Cl)cn2)c1-n1cc(C(F)(F)F)cn1 [Compound 255] | 10 | 70 | 20 | 20 | 10 | 60 | 10 | 50 | 10 | 0 | 10 | 30 | 0 | 0 | 10 | 10 | 
